How the values were obtained:
[1] = test system: Melanoderm-B (Black) reconstructed epidermis; assay: Reconstructed epidermis depigmenting activity, Melanoderm-B; assay type: cell-based; conditions: D3, D7, D10 and D14, 0.5% in Simplex formula
Description: (§1) The compounds of examples 8 and 21 were formulated at the concentration of 0.5% in a Simplex formula according to the example of composition A. Melanoderm-B (Black) or Melanoderm A (Asian) (MatTek, USA) reconstructed epidermis models were used. The reference compound chosen is kojic acid titrated to 2% in aqueous solution. The culture medium is changed every day. The products are applied by topical mode on the epidermis every two days. For the application, the epidermises are rinsed with PBS and the product to be tested is then applied. A preliminary toxicity study made it possible to determine that the dose to apply for each treatment is 25 μL. The tissues were observed on D3, D7, D10, D14 (Melanoderm B) or D6, D10, D14 and D21 (Melanoderm A) by 3 independent experts.

B16-F10 cells = assay: Melanin assay test in B16-F10 cells; assay type: cell-based, murine; conditions: Mus musculus, B16-F10; 0.1 μM α-MSH stimulated, 72 hours treatment; read-out: Results activity B16-F10 IC50 (50% melanin synthesis inhibition)
Description: This involves a test of measuring the synthesis of melanin by colorimetric assay on a murine melanoma cell line: the B16-F10 line. This test enables the depigmenting power of active ingredients to be evaluated.
The B16-F10 cells are cultured in 96-well plates in DMEM medium, supplemented with FCS (foetal calf serum), and incubated 24 hours at 37° C., 5% CO2. The cells are then stimulated with 0.1 μM α-MSH (to stimulate the synthesis of melanin, the stimulation observed is around 150%) and treated 72 hours with the active ingredients to be tested. Each concentration of active ingredient is tested at least in triplicate. The total melanin followed by the intracellular melanin dissolved in the lysis buffer are then assayed by absorbance reading at 405 nm. The total proteins are assayed in the lysate and the results are expressed in mg melanin/mg proteins. The percentage of activity is calculated as follows:
[formula] A negative value indicates an inhibition, whereas a positive value indicates an induction of the synthesis of melanin. General Experimental Conditions: • Equipment: • CO2 cell incubator (Heraeus), Oven, Centrifuge (Heraeus), Laminar air flow fume hood, 96-well clear bottomed plates—Falcon, sterile cones—Treff Lab, Polylabo, Mithras LB940 (Berthold Technologies)-154/MIPA/003 Biological Equipment: • B16-F10 cell line between P10 and P20 (murine melanocytes) (ATCC, CRL-6475) • Reagents • DMEM without phenol red (GIBCOBRL, 31053-028), 200 mM Glutamax-I Supplement (GIBCOBRL, 35050-038), D-PBS (GIBCOBRL, 14190-094), Foetal calf serum (Invitrogen, 10270-098), Trypsine-EDTA (GIBCOBRL, 25300-054), NaOH (Sigma, S8045-500G), DMSO (Sigma, 471267-1L), Nle, Phe—Melanocyte Stimulating Hormone (Sigma, M-8764), Melanin (Sigma, M-0418), BCA-COPPER (SIGMA, B9643 AND C2284), BSA (SIGMA, P0914) B) Test for the Study of the Antioxidant Capacity by Chemiluminescence (Photochem Analytik Jena) Principle: […]

[2] = test system: Melanoderm A (Asian) reconstructed epidermis; assay: Reconstructed epidermis depigmenting activity, Melanoderm A; assay type: cell-based
Description: as §1, with “experts. The formula containing example 8 was also tested in a Melanoderm-A (Asian) model. The coloration of the epidermis is compared to that of the simplex control formula.” for “experts.”

COc1cc(C2C3=C(CC(C)(C)CC3=O)OC3=C2C(=O)CC(C)(C)C3)ccc1O[C@@H]1OC(CO)[C@@H](O)C(O)C1O (stereo in doubt) [Example 21, 9-(3-methoxy-4-((3S,4 S,5S)-3,4,5-trihydroxy-6-(hydroxymethyl)tetrahydro-2H-pyran-2-yloxy)phenyl)-3,3,6,6-tetramethyl-3,4,5,6,7,9-hexahydro-1H-xanthene-1,8(2H)-dione]
Coloration of the epidermis compared to negative control (water) [1]: macroscopic depigmenting effect
IC50 (B16-F10 cells): 69 µM

CCCCCCCCCCCCCCCC(=O)Oc1ccc(C2C3=C(CC(C)(C)CC3=O)OC3=C2C(=O)CC(C)(C)C3)cc1OC [Example 8, 2-methoxy-4-(3,3,6,6-tetramethyl-1,8-dioxo-2,3,4,5,6,7,8,9-octahydro-1H-xanthen-9-yl)phenyl palmitate]
Coloration of the epidermis compared to negative control (water) [1]: macroscopic depigmenting effect
Melanin assay: reduction of melanin with respect to epidermises treated by the Simplex control formula ([2]; 0.5% in Simplex formula): 4.1 µg
Coloration of the epidermis compared to the simplex control formula ([2]; D6, D10, D14, D21, 0.5% in Simplex formula): macroscopic depigmenting effect

Source: US8906416B2, “Xanthenedione derivatives for the treatment of pigmentation and skin ageing disorders” (Pierre Fabre Dermo-Cosmetique, priority 2010, dated 2014)
